According to PMC3265452 (PLoS Neglected Tropical Diseases, 2012):
Where a name gives a salt, the structure may show the parent alone.

These molecules were tested against AaDOP2 (Aedes aegypti, UniProt H6D5H2) (assay: AaDOP2 antagonist screen of the LOPAC1280 library (HEK-CRELuc-Aadop2 cells, luminescence)). Conditions: not given.
Assay type: cell-based

AaDOP2, sequence (H6D5H2 1-476): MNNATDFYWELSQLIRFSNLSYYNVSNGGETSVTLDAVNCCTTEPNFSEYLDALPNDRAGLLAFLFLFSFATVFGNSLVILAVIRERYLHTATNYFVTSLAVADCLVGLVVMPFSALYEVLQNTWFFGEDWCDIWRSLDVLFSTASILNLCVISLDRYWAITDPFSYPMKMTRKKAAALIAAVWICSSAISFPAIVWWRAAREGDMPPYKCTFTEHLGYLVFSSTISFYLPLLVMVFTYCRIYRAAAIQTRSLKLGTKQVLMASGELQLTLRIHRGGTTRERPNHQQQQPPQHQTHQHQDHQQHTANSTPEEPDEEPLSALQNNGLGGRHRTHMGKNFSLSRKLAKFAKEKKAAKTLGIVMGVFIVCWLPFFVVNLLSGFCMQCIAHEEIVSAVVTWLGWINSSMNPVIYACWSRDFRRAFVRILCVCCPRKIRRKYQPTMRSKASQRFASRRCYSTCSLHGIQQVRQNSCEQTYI

Molecule | Compound effect (percent receptor signaling in presence of test compound, relative lux units relative to the SCH23390 control)
COc1ccc([C@@H]2Sc3ccccc3N(CCN(C)C)C(=O)[C@@H]2OC(C)=O)cc1 [Compound 369, Diltiazem hydrochloride] | 107
O=C1NCC2(CCN(CCc3ccccc3)CC2)O1 [Compound 522, Fenspiride hydrochloride] | 98
CN[C@@H](C)[C@H](O)c1ccccc1.CN[C@@H](C)[C@H](O)c1ccccc1.O=S(=O)(O)O [Compound 483, (-)-Ephedrine hemisulfate] | 60
N.N.O=C([O-])C1(C(=O)[O-])CCC1.[Pt+2] [Compound 239, Carboplatin] | 83
CN(C)CC[C@@H](c1ccc(Br)cc1)c1ccccn1 [Compound 176, (+)-Brompheniramine maleate] | 97
CCN(CC)C(C)C(=O)N1c2ccccc2Sc2ccccc21.Cl (stereo not drawn) [Compound 324, 10-(alpha-Diethylaminopropionyl)-phenothiazine hydrochloride] | 56
O=C1CN(/N=C/c2ccc(-c3ccc([N+](=O)[O-])cc3)o2)C(O)=N1 [Compound 427, Dantrolene sodium] | 100
CN1[C@@H](CC(=O)c2ccccc2)CCC[C@H]1C[C@H](O)c1ccccc1.Cl [Compound 702, alpha-Lobeline hydrochloride] | 89
CN/C(=N\c1ccc(C2=NNC(=O)CC2C)cc1)NC#N (centres unmarked) [Compound 1012, SKF 94836] | 72
Cl.Nc1c2c(nc3ccccc13)CCCC2 [Compound 44, 9-Amino-1,2,3,4-tetrahydroacridine hydrochloride] | 206
CN1CC[C@@]23CCCC[C@@H]2[C@@H]1Cc1ccc(O)cc13.O=C(O)C(O)C(O)C(=O)O [Compound 453, Dextrorphan D-tartrate] | 107
C[C@H](CCC(=O)NCCS(=O)(=O)O)[C@H]1CC[C@H]2[C@@H]3[C@H](O)C[C@@H]4C[C@H](O)CC[C@]4(C)[C@H]3C[C@H](O)[C@]12C [Compound 66, Sodium Taurocholate] | 115
CC(=O)[C@H]1CC[C@H]2[C@@H]3CC[C@H]4C[C@H](O)CC[C@]4(C)[C@H]3C(=O)C[C@]12C [Compound 949, 5alpha-Pregnan-3alpha-ol-11,20-dione] | 89
CCc1ccccc1OC[C@@H](O)CN[C@H]1CCCc2ccccc21.O=C(O)C(=O)O [Compound 1122, SR 59230A oxalate] | 75
COc1ccc2c(c1OC)C(=O)OC2C1c2cc3c(cc2CCN1C)OCO3 (single isomer, unassigned; (+)) [Compound 605, (+)-Hydrastine] | 122
CCC1(c2ccccc2)C(=O)NCNC1=O [Compound 967, Primidone] | 94
Nn1nnc2ccccc21 [Compound 46, 1-Aminobenzotriazole] | 141
Cc1ccccc1CNc1ncnc2c1ncn2[C@@H]1O[C@H](CO)[C@@H](O)[C@H]1O [Compound 834, Metrifudil] | 96
Cl.Cl.Cn1cnc(CCN)c1 [Compound 772, 1-Methylhistamine dihydrochloride] | 94

Molecule | Compound effect (percent receptor signaling in presence of test compound, relative lux units relative to the SCH23390 control)
CC(=O)N[C@@H](CS)C(=O)O [Compound 81, N-Acetyl-L-Cysteine] | 101
SB 224289 hydrochloride [Compound 1142] | 95
CCOC(=O)C1=C(C)NC(C)=C(C(=O)OC)C1c1cccc(Cl)c1Cl (centres unmarked) [Compound 539, Felodipine] | 96
Cl.N[C@@H](Cc1cnc[nH]1)C(=O)O [Compound 601, L-Histidine hydrochloride] | 91
Cc1ccccc1N1CCN(S(=O)(=O)C[C@]23CC[C@H](C[C@@H]2NC(=O)[C@@H](N)CCS(C)(=O)=O)C3(C)C)CC1 [Compound 699, L-368,899] | 94
Nc1nc(Nc2ccccc2)nc2c1ncn2[C@@H]1O[C@H](CO)[C@@H](O)[C@H]1O [Compound 1002, 2-Phenylaminoadenosine] | 106
NC(N)=Nc1ccc2[nH]c3c(c2c1)C[C@@]1(O)[C@H]2Cc4ccc(O)c5c4[C@@]1(CCN2CC1CC1)[C@H]3O5.O=C(O)C(F)(F)F.O=C(O)C(F)(F)F [Compound 552, Guanidinyl-naltrindole di-trifluoroacetate] | 120
CC(C)NCC(O)COc1ccc(CCOCC2CC2)cc1 (centres unmarked) [Compound 180, Betaxolol hydrochloride] | 95
Cc1cc(O)c2c(c1)C(=O)c1cc(O)cc(O)c1C2=O [Compound 496, Emodin] | 49
O=C1O/C(=C/Br)CCC1c1cccc2ccccc12 (centres unmarked) [Compound 159, Bromoenol lactone] | 103
Ic1ccccc1CNC1C2CCN(CC2)C1C(c1ccccc1)c1ccccc1.O=C(O)C(=O)O [Compound 725, L-703,606 oxalate] | 98
N=C(N)NC(=N)Nc1ccccc1 [Compound 1011, 1-Phenylbiguanide] | 81
C[C@H](CS)C(=O)N1CCC[C@H]1C(=O)O [Compound 255, Captopril] | 112
Oc1cc2c(cc1O)[C@H]1c3ccccc3CN[C@@H]1CC2 (racemic) [Compound 398, Dihydrexidine hydrochloride] | 110
CC(N/C(=N\C#N)Nc1ccncc1)C(C)(C)C (centres unmarked) [Compound 1016, Pinacidil] | 89
S=C(NC1CCCCC1)N1CCC(c2cnc[nH]2)CC1 [Compound 1226, Thioperamide maleate] | 90
CN(C)CCCO[C@@H]1[C@H]2OC(C)(C)O[C@H]2O[C@@H]1[C@H](O)CO [Compound 53, Amiprilose hydrochloride] | 99
O=C(CCCN1CC=C(n2c(=O)[nH]c3ccccc32)CC1)c1ccc(F)cc1 [Compound 363, Droperidol] | 58
CC(C)[C@@]1(NC(=O)[C@@H]2C[C@@H]3c4cccc5[nH]cc(c45)C[C@H]3N(C)C2)O[C@@]2(O)[C@@H]3CCCN3C(=O)[C@H](Cc3ccccc3)N2C1=O.CS(=O)(=O)O [Compound 465, Dihydroergocristine methanesulfonate] | 32

Same assay, conditions: 10 µM compound, 300 nM dopamine, 2 hr; hit = compound effect <20

Molecule | Compound effect (percent receptor signaling in presence of test compound, relative lux units relative to the SCH23390 control) [%]
CC(C)N(CCC(=O)c1ccc2ccccc2c1)Cc1ccccc1.Cl [Compound 829, ZM 39923 hydrochloride] | 83
Cortexolone maleate [Compound 1081] | 83
Br.Br.N=C(N)SCCc1ccc(CCSC(=N)N)cc1 [Compound 979, 1,4-PBIT dihydrobromide] | 120
Cc1cccc(C)c1OCC(C)N.Cl (centres unmarked) [Compound 751, Mexiletene hydrochloride] | 105
CN1CCN(c2ccc3ccccc3n2)CC1.O=C(O)/C=C\C(=O)O.O=C(O)/C=C\C(=O)O [Compound 1036, Quipazine, N-methyl-, dimaleate] | 74
Br.CN1CCc2cc(O)c(O)cc2C(c2ccccc2)C1 (centres unmarked) [Compound 1093, SKF 75670 hydrobromide] | 39
R(-)-Isoproterenol (+)-bitartrate [Compound 640] | 118
Brc1ccc([C@H]2CN3CCSC3=N2)cc1.O=C(O)C(=O)O [Compound 3, S(-)-p-Bromotetramisole oxalate] | 106
SKF 83565 hydrobromide [Compound 1096] | 57
COc1cc(C(O)CO)ccc1OS(=O)(=O)[O-].[K+] (centres unmarked) [Compound 607, MHPG sulfate potassium] | 131
CC(=O)NCCc1ccc(O)c(O)c1.O [Compound 98, N-Acetyldopamine monohydrate] | 95
Cl.NOCC(=O)O.NOCC(=O)O [Compound 49, O-(Carboxymethyl)hydroxylamine hemihydrochloride] | 97
